According to ChEMBL document CHEMBL1148604 (J Med Chem, 2006):
≈ marks a conversion by molar mass, not a printed value.

Tests used:
Escherichia coli = experiment: Inhibitory activity against Escherichia coli ANSI; format: functional
[1] = test system: Mycobacterium tuberculosis; experiment: Inhibitory activity against Mycobacterium tuberculosis H37Rv; format: functional
[2] = target: T1, 3-oxoacyl-[acyl-carrier-protein] synthase 1 (Escherichia coli K-12, UniProt P0A953); experiment: Inhibitory activity against FabB from Escherichia coli ANSI
T1 sequence (P0A953 whole entry): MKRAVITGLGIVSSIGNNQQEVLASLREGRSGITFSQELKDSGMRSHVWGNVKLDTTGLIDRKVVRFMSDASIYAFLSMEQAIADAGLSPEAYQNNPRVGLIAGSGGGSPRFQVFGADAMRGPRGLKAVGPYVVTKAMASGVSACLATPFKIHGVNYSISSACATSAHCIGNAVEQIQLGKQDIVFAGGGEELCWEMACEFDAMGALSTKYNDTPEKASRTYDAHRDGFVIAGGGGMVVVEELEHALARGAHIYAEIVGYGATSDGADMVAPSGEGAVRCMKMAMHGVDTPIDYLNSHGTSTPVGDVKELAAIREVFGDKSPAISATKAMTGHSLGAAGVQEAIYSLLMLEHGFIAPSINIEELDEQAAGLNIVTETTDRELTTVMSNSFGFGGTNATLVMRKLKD

[3] = target: T2, 3-oxoacyl-[acyl-carrier-protein] synthase 3 (Escherichia coli, UniProt C3TDZ2); experiment: Inhibitory activity against FabH from Escherichia coli ANSI
T2 sequence (C3TDZ2 whole entry): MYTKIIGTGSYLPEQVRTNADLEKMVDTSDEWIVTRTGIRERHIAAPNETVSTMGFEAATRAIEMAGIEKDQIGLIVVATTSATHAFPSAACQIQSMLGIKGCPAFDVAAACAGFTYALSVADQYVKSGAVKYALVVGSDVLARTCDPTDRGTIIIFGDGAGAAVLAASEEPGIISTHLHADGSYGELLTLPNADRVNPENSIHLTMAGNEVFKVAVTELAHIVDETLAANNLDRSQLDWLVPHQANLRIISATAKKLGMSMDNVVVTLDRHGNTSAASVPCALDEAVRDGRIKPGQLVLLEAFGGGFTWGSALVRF

[4] = target: T3, Mycobacterial beta-ketoacyl-[acyl-carrier-protein] synthase III (Mycobacterium tuberculosis, UniProt P9WNG3); experiment: Inhibitory activity against FabH from Mycobacterium tuberculosis H37Rv
T3 sequence (P9WNG3 whole entry): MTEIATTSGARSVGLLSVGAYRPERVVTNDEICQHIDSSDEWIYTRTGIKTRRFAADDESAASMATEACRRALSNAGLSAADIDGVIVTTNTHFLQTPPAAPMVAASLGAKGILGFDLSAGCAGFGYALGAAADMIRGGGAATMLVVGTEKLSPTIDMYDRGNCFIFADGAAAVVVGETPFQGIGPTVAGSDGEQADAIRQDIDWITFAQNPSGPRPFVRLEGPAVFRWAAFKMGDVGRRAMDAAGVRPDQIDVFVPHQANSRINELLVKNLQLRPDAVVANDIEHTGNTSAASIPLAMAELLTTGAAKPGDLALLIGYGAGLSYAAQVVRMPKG

[5] = target: T4, 3-oxoacyl-[acyl-carrier-protein] synthase 2 (Mycobacterium tuberculosis, UniProt P9WQD7); experiment: Inhibitory activity against KasB from Mycobacterium tuberculosis H37Rv
T4 sequence (P9WQD7 whole entry): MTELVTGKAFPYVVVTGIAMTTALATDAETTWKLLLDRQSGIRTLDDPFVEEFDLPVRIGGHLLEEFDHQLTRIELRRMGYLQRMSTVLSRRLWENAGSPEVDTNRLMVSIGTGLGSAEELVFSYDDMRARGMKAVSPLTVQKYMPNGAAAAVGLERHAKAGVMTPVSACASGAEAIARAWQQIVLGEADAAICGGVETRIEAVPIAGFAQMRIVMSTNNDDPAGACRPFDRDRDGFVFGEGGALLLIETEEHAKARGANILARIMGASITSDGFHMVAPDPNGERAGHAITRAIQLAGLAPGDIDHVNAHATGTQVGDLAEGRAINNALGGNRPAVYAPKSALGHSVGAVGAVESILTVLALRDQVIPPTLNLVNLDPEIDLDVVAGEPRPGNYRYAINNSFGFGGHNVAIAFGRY

wild-type apo-KasA = wild-type apo-KasA (Mycobacterium tuberculosis, UniProt P9WQD9); experiment: Inhibitory activity against KasA from Mycobacterium tuberculosis H37Rv
Chain of wild-type apo-KasA (P9WQD9 whole entry, looked up): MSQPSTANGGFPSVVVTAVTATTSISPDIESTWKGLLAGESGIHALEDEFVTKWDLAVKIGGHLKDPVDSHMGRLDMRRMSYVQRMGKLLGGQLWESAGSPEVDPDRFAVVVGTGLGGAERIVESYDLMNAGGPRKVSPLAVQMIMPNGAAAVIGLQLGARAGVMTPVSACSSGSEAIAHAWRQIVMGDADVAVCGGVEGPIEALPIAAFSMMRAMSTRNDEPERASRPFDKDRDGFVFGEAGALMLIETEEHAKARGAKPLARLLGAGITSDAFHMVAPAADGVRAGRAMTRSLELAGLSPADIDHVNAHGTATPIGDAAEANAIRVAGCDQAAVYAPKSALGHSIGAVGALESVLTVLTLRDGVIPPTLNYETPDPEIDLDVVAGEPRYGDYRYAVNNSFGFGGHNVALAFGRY

Compound	MIC (Escherichia coli)	MIC [1]	IC50 [2]	IC50 [3]	IC50 [4]	IC50 [5]	IC50 (wild-type apo-KasA)
CC1=C(O)C(C)(CCc2ccccc2)SC1=O (stereo not given)	> 1000 µM	1000 µM (≈ 248 µg/mL)	> 1000 µM	> 1000 µM	> 1000 µM	> 1000 µM	> 1000 µM
CC1=C(O)C(C)(Cc2ccc(Cl)cc2)SC1=O (stereo not given)	> 1000 µM	1000 µM (≈ 269 µg/mL)	> 1000 µM	> 1000 µM	> 100 µM	> 1000 µM	> 1000 µM
CCCCCCCCCCCCCCCC1(C)SC(O)=C(C)C1=O (stereo not given)	–	500 µM (≈ 177 µg/mL)	–	–	–	–	–
CCCCCCCC1(C)SC(O)=C(C)C1=O (stereo not given)	200 µM (≈ 48.5 µg/mL)	1000 µM (≈ 242 µg/mL)	> 1000 µM	> 1000 µM	> 1000 µM	> 1000 µM	> 1000 µM
CCCCCC(C)C1(C)SC(O)=C(C)C1=O (stereo not given)	160 µM (≈ 38.8 µg/mL)	1000 µM (≈ 242 µg/mL)	> 1000 µM	> 1000 µM	> 1000 µM	> 1000 µM	> 1000 µM
CC1=C(O)SC(C)(C(C)c2ccccc2)C1=O (stereo not given)	> 1000 µM	> 1000 µM	> 1000 µM	> 1000 µM	> 1000 µM	> 1000 µM	> 1000 µM
CC1=C(O)C(C)(CC2CCC2)SC1=O (stereo not given)	> 1000 µM	1000 µM (≈ 212 µg/mL)	> 1000 µM	> 1000 µM	> 1000 µM	> 1000 µM	> 1000 µM
CC1=C(O)C(C)(Cc2ccccc2C)SC1=O (stereo not given)	> 1000 µM	1000 µM (≈ 248 µg/mL)	> 1000 µM	> 1000 µM	> 1000 µM	> 1000 µM	> 1000 µM
CC1=C(O)C(C)(Cc2ccc([N+](=O)[O-])cc2)SC1=O (stereo not given)	> 1000 µM	> 1000 µM	> 1000 µM	> 1000 µM	> 1000 µM	> 1000 µM	> 1000 µM
CC1=C(O)C(C)(Cc2c(C)cc(C)cc2C)SC1=O (stereo not given)	> 1000 µM	1000 µM (≈ 276 µg/mL)	> 1000 µM	> 1000 µM	> 1000 µM	> 1000 µM	> 1000 µM
CC1=C(O)C(C)(Cc2ccc(C(C)(C)C)cc2)SC1=O (stereo not given)	> 1000 µM	1000 µM (≈ 290 µg/mL)	> 1000 µM	> 1000 µM	> 100 µM	> 1000 µM	> 1000 µM
CCCCCCCCCCCC1(C)SC(O)=C(C)C1=O (stereo not given)	25 µM (≈ 7.46 µg/mL)	500 µM (≈ 149 µg/mL)	> 1000 µM	> 100 µM	100 µM	> 1000 µM	> 1000 µM
CC1=C(O)C(C)(Cc2ccc3ccccc3c2)SC1=O (stereo not given)	> 1000 µM	500 µM (≈ 142 µg/mL)	> 1000 µM	> 1000 µM	> 100 µM	> 1000 µM	> 1000 µM
CCCCCCCCCC1(C)SC(O)=C(C)C1=O (stereo not given)	100 µM (≈ 27 µg/mL)	500 µM (≈ 135 µg/mL)	> 1000 µM	> 100 µM	> 100 µM	> 1000 µM	> 1000 µM
CC1=C(O)C(C)(Cc2cccc(C)c2)SC1=O (stereo not given)	> 1000 µM	1000 µM (≈ 248 µg/mL)	> 1000 µM	> 1000 µM	> 1000 µM	> 1000 µM	> 1000 µM
C=CCCC1(C)SC(=O)C(C)=C1O (stereo not given)	> 1000 µM	> 1000 µM	> 1000 µM	> 1000 µM	> 1000 µM	> 1000 µM	> 1000 µM
CCCCCCCCCCC(C)C1(C)SC(O)=C(C)C1=O (stereo not given)	35 µM (≈ 10.9 µg/mL)	500 µM (≈ 156 µg/mL)	> 1000 µM	100 µM	65 µM	> 1000 µM	> 1000 µM
C=C/C(C)=C/[C@@]1(C)SC(=O)C(C)=C1O [THIOLACTOMYCIN]	6 µM (≈ 1.26 µg/mL)	62.5 µM (≈ 13.1 µg/mL)	12 µM	–	–	6 µM	–
CCCCCCCCCCCCCCCCC1(C)SC(O)=C(C)C1=O (stereo not given)	–	> 1000 µM	–	–	–	–	–
CCCCCCCCCCCCCCCCCCCCC1(C)SC(O)=C(C)C1=O (stereo not given)	–	> 1000 µM	–	–	–	–	–
CCCCCCCCCCCCCCCCCCC1(C)SC(O)=C(C)C1=O (stereo not given)	–	> 1000 µM	–	–	–	–	–
